Results on 1 compound are retold here after US20240116985A1, “STAPLED PEPTIDES AND METHODS THEREOF” (priority 2020, published 2024).

One data set concerns HEK293 cells. Description: in vitro. The data set is classed as cell-based. Conditions: human. As for the experimental part:
(§1) On Day 3, fluorescence was read with Nano-BRET substrates. Remove plates from incubator to allow to reach to RT (30 min). Also equilibrate CTG reagent to Rm Temp. Dilute Nano-BRET substrate 1:100 in Assay media. Add 25 uL of diluted substrate to each well and shake for 30 seconds. Read on ClarioSTAR or GloMAX right away (within 10 min). Donor emission @ 460 nm. Acceptor emission @ 618 nm. Use the same plate to measure cell viability (Cell Titer-Glo-2.0 (CTG) Viability test). After reading BRET signal, add CTG reagent to each well at 1:2 ratio and shake on orbital shaker for 2 min. Incubate at Rm Temp for 10-30 min. Read luminescence on ClarioSTAR or GloMAX. Analysis was performed using Prism. Non-linear regression. Log (inhibitor) vs response—variable slope (four parameters). For CTG data linear values (not logarithmic).

The next data set is described as follows: in vitro. The data set is classed as cell-based. Conditions: human, HEK293 cells, CTG (CellTiter Glo) Relative to Media. Here is the method: as §1

One may read the viability as the share of living cells, or the viability signal relative to a control. The low end stands for a greater loss of cells, the high end for better survival. Regarding `CC(=O)N1CCC[C@]12CC=CCCCC1(CCCC=CCCCOC(=O)N3CC[C@@](C(=O)N[C@@H](Cc4ccsc4)C(=O)N[C@@H](Cc4csc5ccccc45)C(=O)N[C@@H](CCC(N)=O)C(=O)N[C@H](C)C(N)=O)(C3)NC(=O)[C@H](CC(N)=O)NC(=O)[C@H](Cc3ccccc3)NC(=O)[C@H](C)NC(=O)[C@H](C)NC(=O)[C@H](CC(=O)O)NC(=O)[C@H](CC(=O)O)NC1=O)NC(=O)[C@H](CC(C)(C)C)NC(=O)[C@H](CC(=O)O)NC2=O` (stereo partly drawn) [I-822, Ac-PL3-Asp-Npg-B5-Asp-Asp-Ala-Ala-Phe-Asn-PyrS2-3Thi-BztA-Gln-dAla-NH2], the “CTG (CellTiter Glo) Relative to Media” value in the data set with HEK293 cells (1.25 µM) was found to be 98. In the data set on HEK293 cells (2.5 µM), the “CTG (CellTiter Glo) Relative to Media” value is given as 98. The “CTG (CellTiter Glo) Relative to Media” value in the data set with HEK293 cells (5 µM) was found to be 95. Besides, the “CTG (CellTiter Glo) Relative to Media” value with HEK293 cells (10 µM) turned out to be 92. Also, in “in vitro”, the viability at 0.625 µM was found to be 100%, the viability at 1.25 µM was 94%, the viability at 2.5 µM worked out at 99% and the viability at 5 µM amounted to 94%. Moreover, in the data set “in vitro”, the viability at 10 µM turned out to be 90% and the viability at 20 µM worked out at 82%.
